Data as given in patent publication US9605041B2, “Regulatory proteins and inhibitors” (INTRA-CELLULAR THERAPIES, INC., priority 2009, dated 2017).
Entries after “also recorded” stand apart in the source; their conditions may differ. One block for each molecule: values may come before it.

Key:
[1] = system: Aβ production in Neuroblastoma 2a cells stably overexpressing human APP695; assay: Cellular Aβ production assay, incubation with G01 (4G8 immunoprecipitation, 6E10 blot); type: cell-based; details: 10 μM, 3 hr
Experimental: Neuroblastoma 2a cells stably overexpressing human APP695 are treated with 10 μM G01 for 3 hr. Cells treated with DMSO, or DMSO plus imatinib are used as controls. After 3 hr, conditioned medium is collected and Aβ immunoprecipitation is conducted using 4G8 antibody. The immunoprecipitated Aβ is separated on 10-20% Tris-tricine gel, transferred to PVDF membrane and detected by 6E10 antibody. […]

PDGF receptor = assay: Kinase profiling (Millipore standard assay), PDGF receptor; details: ATP=45 μM
Abl kinase [2] = target: T1, Abl kinase (Homo sapiens, UniProt P00519); assay: Kinase profiling (Millipore standard assay), Abl kinase
T1 sequence (P00519 whole entry): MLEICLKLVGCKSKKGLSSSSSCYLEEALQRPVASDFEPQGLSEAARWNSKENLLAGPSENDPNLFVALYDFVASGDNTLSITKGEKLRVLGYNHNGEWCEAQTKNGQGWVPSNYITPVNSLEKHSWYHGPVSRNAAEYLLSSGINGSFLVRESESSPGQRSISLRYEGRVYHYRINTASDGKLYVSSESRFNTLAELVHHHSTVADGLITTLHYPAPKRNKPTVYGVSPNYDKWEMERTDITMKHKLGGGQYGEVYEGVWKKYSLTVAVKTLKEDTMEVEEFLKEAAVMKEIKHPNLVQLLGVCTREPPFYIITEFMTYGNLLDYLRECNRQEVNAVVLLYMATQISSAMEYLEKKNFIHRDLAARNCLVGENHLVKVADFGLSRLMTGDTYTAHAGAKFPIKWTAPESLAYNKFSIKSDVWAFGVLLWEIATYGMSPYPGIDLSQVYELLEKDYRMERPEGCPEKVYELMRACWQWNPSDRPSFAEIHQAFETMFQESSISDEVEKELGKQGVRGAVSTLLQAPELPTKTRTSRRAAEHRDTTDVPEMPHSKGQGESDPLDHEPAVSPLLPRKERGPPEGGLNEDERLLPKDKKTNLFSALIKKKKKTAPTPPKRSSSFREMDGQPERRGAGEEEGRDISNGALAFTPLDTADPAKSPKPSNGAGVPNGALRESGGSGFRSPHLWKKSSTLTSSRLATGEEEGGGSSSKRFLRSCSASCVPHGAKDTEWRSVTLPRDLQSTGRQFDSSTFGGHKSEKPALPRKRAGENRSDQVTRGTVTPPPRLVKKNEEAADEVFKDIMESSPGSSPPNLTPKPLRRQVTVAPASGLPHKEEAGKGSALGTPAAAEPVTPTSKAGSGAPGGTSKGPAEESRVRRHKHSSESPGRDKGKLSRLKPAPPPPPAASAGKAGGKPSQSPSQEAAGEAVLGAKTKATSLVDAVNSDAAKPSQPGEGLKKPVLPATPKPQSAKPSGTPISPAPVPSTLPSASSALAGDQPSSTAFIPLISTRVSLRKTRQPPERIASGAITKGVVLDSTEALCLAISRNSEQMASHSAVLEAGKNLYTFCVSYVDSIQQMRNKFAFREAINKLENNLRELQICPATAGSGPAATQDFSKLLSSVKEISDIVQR

gSAP (16 kDa band) = target: T2, gSAP (16 kDa band) (Homo sapiens, UniProt A4D1B5); assay: Affinity capture on immobilized biotin-imatinib beads, silver staining; type: binding; details: HEK293 cell lysates, SDS-PAGE
T2 construct: the 16 kDa band is identified as the C-terminal domain of gSAP by MS/MS mass spectrometry; endogenous in cells; host or cells: CHAPSO-solubilized membrane extract of HEK293 cells
T2 sequence (A4D1B5 734-854 limits assumed): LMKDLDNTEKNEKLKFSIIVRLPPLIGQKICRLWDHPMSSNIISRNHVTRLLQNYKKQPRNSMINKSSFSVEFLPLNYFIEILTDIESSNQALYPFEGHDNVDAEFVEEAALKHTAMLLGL
Experimental: After cell debris is cleared by centrifugation at 1,000 g for 5 mins, the supernatant is subjected to ultracentrifugation at 100,000 g for 1 h. The membrane pellet is then solubilized on ice in 50 mM Hepes, 150 mM NaCl, 5 mM MgCl2, 5 mM CaCl2, and 1% CHAPSO containing protease inhibitors (Roche Inc. cat#04 693 132 001) for 1 h and subject to ultracentrifugation for 1 h at 100,000 g. The soluble membrane extracts are incubated with Myonen™ streptavidin T1 beads (cat#656-01, Invitrogen) containing bound active biotin-imatinib for 3 hr at 4° C. Subsequently, the beads are washed three times with lysate buffer. Bound proteins are eluted with tricine SDS-PAGE sample buffer and separated on 10-20% tris-tricine gels. For immunoblotting, the gel is then transferred to PVDF membrane and probed with γ-secretase antibodies: PS1 antibody (cat#529592) and Pen-2 antibody (cat#NE1008) are from EMD Biosciences and nicastrin antibody is from BD Transduction Laboratories (cat#612290). Silver staining is used to identify protein bands in SDS-PAGE gels. The ˜16 kDa band is excised, trypsinized, and sequenced by tandem MS/MS mass spectrometry.
Endogenous γ-secretase components are detected by specific antibodies to Nicastrin, PS1-CTF and Pen-2. Photoactivatible ^125I and ^3H-G01 are used to label membrane preparations or intact HEK293 cells, respectively. […]

γ-secretase = target: T3, γ-secretase (Homo sapiens, UniProt P49768); assay: In vitro γ-secretase assay, membranes from HEK293 cells with APP-β-CTF; type: biochemical
T3 construct: Membrane pellets are prepared from HEK293 cells transfected with APP-β-CTF (CT-100) as described above; endogenous in cells; host or cells: membranes of HEK293 cells transfected with APP-β-CTF (CT-100); gSAP-16K added from BL21 DE3 E. coli
Experimental: Membrane pellets are prepared from HEK293 cells transfected with APP-β-CTF (CT-100) as described above, and the membranes are washed with assay buffer (10 mM Hepes, 140 mM KOAc, 2.5 mM MgOAc, 0.1 mM CaCl2, 1 mM ATP, pH 7.2) and pelleted at 100,000 g for 30 min at 4° C. Recombinant gSAP-16K (aa733-854 of the human gSAP) is expressed and purified from BL21 DE3 E. coli. The membranes are resuspended in 200 μl of assay buffer with 2 μg recombinant gSAP-16K or the same amount of BSA as control. A parallel system with 1 μM L685,458 (γ-secretase inhibitor) is also used as a control. The membrane suspension is pre-incubated at 4° C. for 1 hr and then incubated for 2 hr at 37° C. to allow in vitro generation of Aβ. The membranes are solubilized in ¼ volume of 200 mM Tris, pH 7.8, 760 mM NaCl, 24 mM EDTA, 10% Triton X-100, and insoluble material is removed by centrifugation at 10,000 g for 20 min. Aβ is immunoprecipitated from the lysate using 4G8 antibody, separated on 10-20% Tris-tricine gel, transferred to PVDF membrane, and subjected to autoradiography using Kodak MR film.

Abl kinase [3] = target: T1, Abl kinase; assay: Ki versus Abl kinase; type: biochemical
Aβ in N2a cell system = assay: Total human Aβ in the N2a cell system (sandwich ELISA, Western blot); type: cell-based
Experimental: Total human Aβ in the N2a cell system is measured in a standard sandwich ELISA by using a specific monoclonal antibody (6E10, Signet Laboratories) to capture the Aβ40 and Aβ42 and an antibody to Aβ17-24 (4G8, Signet Laboratories, Dedham, Mass.) for detection. Cell culture medium (5 μL/well) is diluted to 100 μL in phosphate-buffered saline/0.2% Tween 20 and loaded onto ELISA plates. For Western blot assays, cell medium is diluted with 2× tricine sodium dodecyl sulfate sample buffer, and heated at 95° C. for 5 min. […] Aβ is detected with antibody 4G8 and an Alexa 680-conjugated rabbit anti-mouse secondary and scanned with a LiCor Odyssey infrared scanner.

panel of 40 kinases = assay: Panel of 40 kinases; type: biochemical; details: data not shown
mouse ΔE-Notch cleavage = assay: ΔE-Notch cleavage in HEK293 cells incubated with test compounds; type: cell-based, human; details: 4 h incubation, DAPT positive control
gSAP-16K (16 kDa band) = target: T4, gSAP-16K (16 kDa band) (Homo sapiens, UniProt A4D1B5); assay: In vitro and intact cell photolabeling with 125I-G01 / 3H-G01; type: binding; details: 20 nM 125I-G01 on membranes or 3H-G01 on intact cells, photolysis
T4 construct: is rapidly processed into a ˜16 kDa C-terminal fragment (gSAP-16K); endogenous in cells; host or cells: HEK293 membrane preparations (125I-G01) and intact HEK293 cells (3H-G01)
T4 sequence (A4D1B5 733-854): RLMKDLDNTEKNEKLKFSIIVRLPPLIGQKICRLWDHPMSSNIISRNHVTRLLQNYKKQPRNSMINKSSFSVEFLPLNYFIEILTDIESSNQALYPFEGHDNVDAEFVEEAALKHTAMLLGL

gSAP = target: T5, gSAP (Mus musculus, UniProt Q3TCV3); assay: siRNA knockdown of gSAP in neuroblastoma cells overexpressing APP695, gSAP level and Aβ; type: cell-based
T5 construct: pulse-chase labeling of endogenous gSAP in N2a cells; endogenous in cells; host or cells: Neuroblastoma 2a cells stably overexpressing APP695
T5 sequence (Q3TCV3 738-858 limits assumed): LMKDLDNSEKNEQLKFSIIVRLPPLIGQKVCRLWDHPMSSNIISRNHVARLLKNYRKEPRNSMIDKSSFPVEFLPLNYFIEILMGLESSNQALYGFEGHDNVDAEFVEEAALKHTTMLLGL
Experimental: For cellular gSAP knockdown experiments, small interfering RNA (siRNA) of gSAP is purchased from Dharmacon Inc. The sequences of the siRNA used are as follow: sense sequence: [NT]; antisense sequence: 5'-[NT] Neuroblastoma 2a cell line stably overexpressing APP695 is transfected with siRNA using DharmaFect 2 reagent at a concentration of 50 nM following instructions provided by the manufacturer. […] To assay Aβ, the medium is removed after 48 h of transfection and replaced with Opti-MEM for 3 h incubation. Aβ is then immunoprecipitated from conditioned medium using the 4G8 antibody. Quantitation of Aβ levels in the conditioned medium is also assessed using Aβ40 and Aβ42 ELISA kits (Invitrogen). The procedures are carried out according to the manufacturer's instructions.

Aβ production = details: Netzer et al. 2003; cited from earlier work

Molecule: Cc1ccc(NC(=O)c2ccc(N=[N+]=[N-])cc2O)cc1Nc1nccc(-c2cccnc2)n1 [G01, 4-azido-2-hydroxy-N-(4-methyl-3-(4-(pyridin-3-yl)pyrimidin-2-ylamino)phenyl)benzamide]
Aβ in conditioned medium compared to DMSO vehicle [1]: significantly reduces Aβ

Molecule: Cc1ccc(NC(=O)c2ccc(CN3CCN(C(=O)CCCC[C@@H]4SC[C@@H]5NC(=O)N[C@@H]54)CC3)cc2)cc1Nc1nccc(-c2cccnc2)n1 [IC200001]
inhibitory activity toward PDGF receptor (PDGF receptor): no significant inhibitory activity | inhibitory activity toward Abl kinase (Abl kinase [2]; ATP=45 μM): no significant inhibitory activity | binding of the ~16 kDa band (gSAP) to the immobilized compound (gSAP (16 kDa band)): does not bind

Molecule: Cc1ccc(NC(=O)c2ccc(CN3CCN(CCNC(=O)CCCC[C@@H]4SC[C@@H]5NC(=O)N[C@@H]54)CC3)cc2)cc1Nc1nccc(-c2cccnc2)n1 [IC339239]
IC50 (PDGF receptor; read-out: IC50 against PDGF receptor): 6.6 µM | IC50 (Abl kinase [2]): 0.146 µM

Molecule: Cc1ccc(NC(=O)c2ccc(CN3CCN(C)CC3)cc2)cc1Nc1nccc(-c2cccnc2)n1 [imatinib, reference compound]
additional effect of imatinib on Aβ levels under gSAP siRNA knockdown (gSAP): not additive; also recorded: little or no additional effect | production of Aβ (Aβ production): inhibits production of Aβ

Molecule: siRNA: siRNA of gSAP, sense AUGCAGAGCUGGACGACAUUU, antisense 5′-P.AUGUCGUCCAGCUCUGCAUUU (5'-phosphate on antisense, further chemistry not given here)
decrease of the level of Aβ (gSAP; gSAP siRNA knockdown): about 50% | reduction of gSAP level (gSAP; siRNA 50 nM): 72±15%

More lines, main results first:

Aβ production in the in vitro γ-secretase assay (γ-secretase; 1 μM): abolishes Aβ production
Molecule: CC(C)C[C@H](NC(=O)[C@H](Cc1ccccc1)C[C@@H](O)[C@H](Cc1ccccc1)NC(=O)OC(C)(C)C)C(=O)N[C@@H](Cc1ccccc1)C(N)=O [L685,458, reference compound]

Ki (Abl kinase [3]): ~12 µM | weaker activity versus Abl kinase compared to imatinib (Abl kinase [3]): 100 fold | kinase inhibitory activity against a panel of 40 kinases (panel of 40 kinases): little kinase inhibitory activity
Molecule: Cc1ncc(NC(=O)c2ccc(CC3CCN(C)CC3)cc2)cc1Nc1nccc(-c2ccccc2)n1 [N-(6-methyl-5-(4-phenylpyrimidin-2-ylamino)pyridin-3-yl)-4-((1-methylpiperidin-4-yl)methyl)benzamide]
concentrations that significantly lower Aβ (Aβ in N2a cell system): < 500 nM | influence on NOTCH metabolism (mouse ΔE-Notch cleavage): do not influence NOTCH metabolism

photolabeling of the 16 kDa protein (gSAP-16K) (gSAP-16K (16 kDa band)): specifically labeled
Molecule: Cc1ccc(NC(=O)c2ccc(N=[N+]=[N-])cc2O)cc1Nc1nccc(-c2cccnc2)n1 [^3H-G01]

stimulation of Aβ production (γ-secretase; 2 μg recombinant gSAP-16K added to membranes, BSA control): 2.4±0.3 fold
B1: gSAP-16K: recombinant 16 kDa C-terminal fragment, aa 733-854 of human gSAP, expressed in E. coli (protein, UniProt A4D1B5 733-854, looked up, fragment)
chain: RLMKDLDNTEKNEKLKFSIIVRLPPLIGQKICRLWDHPMSSNIISRNHVTRLLQNYKKQPRNSMINKSSFSVEFLPLNYFIEILTDIESSNQALYPFEGHDNVDAEFVEEAALKHTAMLLGL
